Where “and” joins values, the source holds several entries; their conditions need not be identical. Equal entries are not always repeated. Where two headings read alike, the source gives them in different places.
Experiments:
Format in all cases: in vivo, Helianthus annuus
[1] = tested on: sunflower TH12 (Restorer Line, A122T); conditions: 14 DAT
Experimental: (§1) A greenhouse study was conducted to quantify and contrast the imazapir sensivity of the mutants A122T and A205V in different genetic backgrounds at the whole plant level in sunflower. Seeds of the different sunflower lines that were used in this study were obtained under field conditions.
(§2) Seeds were sown in Petri dishes and, after germination, plantlets were transplanted to pots of 10 cm of diameter in a potting media consisting of equal parts of vermiculite, soil and sand. Plants were grown in a greenhouse under natural light conditions supplemented with 400 W sodium halide lamps to provide a 16 hrs daylength. Day/night temperatures were 25 and 20° C., respectively. At the V2 stage 10 plants of each genotype were randomly assigned to each treatment consisting of […] imazapir doses (0, 40, 80, 160, 240, 320, 400 and 480 g ai/ha), and a zero-time biomass determination. Experiment was arranged as a randomized block design with a full factorial (sunflower line×treatment) arrangement of treatments and 10 replications.
(§3) On the day of herbicide application ten plants of each genotype were cut at the cotyledonal node and dried at 60° C. for 48 hrs zero-time for dried weight determination.
(§4) Height was determined as the distance between the cotyledonal node and the apex of each plant. For root biomass determination, each plant was taken from the pot and the potting media was washed out from the roots. Above ground biomass data from each line were converted to biomass accumulation after application by subtracting the appropriate average zero-time biomass from each sample. Dry biomass data were converted to percentages of the untreated control plants within each line to allow direct comparisons between groups. […]

[2] = tested on: sunflower lines carrying the A205V mutation; conditions: 14 DAT; for biomass accumulation, Dif with Control / plant height, Dif with Control / root dry weight, Dif with Control: A205V mean; for biomass accumulation, Mean / root dry weight, Mean / plant height, Mean: six A205V genotypes; for Phytotoxicity Index, Mean: three A205V genotypes
Experimental: as §1, §2, §3, §4

[3] = tested on: sunflower TH1 (Hybrid, A205V); conditions: 14 DAT
Experimental: as §1, §2, §3, §4

[4] = tested on: sunflower TH10 (Restorer Line, A205V); conditions: 14 DAT
Experimental: as §1, §2, §3, §4

Structure (SMILES): CC(C)C1(C)N=C(c2ncccc2C(=O)O)NC1=O (centres unmarked) [imazapyr]
- Phytotoxicity Index ([1]; 0.5x (40 g ai/ha)): 0.0
- biomass accumulation (above ground dry weight) ([1]; 0.5x (40 g ai/ha)): 100.0 % of untreated plots
- plant height ([1]; 0.5x (40 g ai/ha)): 100.0 % of untreated plots
- root dry weight ([1]; 0.5x (40 g ai/ha)): 99.4 % of untreated plots
- Phytotoxicity Index ([1]; 1x (80 g ai/ha)): 0.0
- biomass accumulation (above ground dry weight) ([1]; 1x (80 g ai/ha)): 99.1 % of untreated plots
- plant height ([1]; 1x (80 g ai/ha)): 100.0 % of untreated plots
- root dry weight ([1]; 1x (80 g ai/ha)): 100 % of untreated plots
- Phytotoxicity Index ([1]; 2x (160 g ai/ha)): 0.0
- biomass accumulation (above ground dry weight) ([1]; 2x (160 g ai/ha)): 97.0 % of untreated plots
- plant height ([1]; 2x (160 g ai/ha)): 101.8 % of untreated plots
- root dry weight ([1]; 2x (160 g ai/ha)): 100 % of untreated plots
- Phytotoxicity Index ([1]; 3x (240 g ai/ha)): 0.0
- biomass accumulation (above ground dry weight) ([1]; 3x (240 g ai/ha)): 96.1 % of untreated plots
- plant height ([1]; 3x (240 g ai/ha)): 97.0 % of untreated plots
- root dry weight ([1]; 3x (240 g ai/ha)): 100.0 % of untreated plots
- Phytotoxicity Index ([1]; 4x (320 g ai/ha)): 0.0
- biomass accumulation (above ground dry weight) ([1]; 4x (320 g ai/ha)): 84.3 % of untreated plots
- plant height ([1]; 4x (320 g ai/ha)): 92.1 % of untreated plots
- root dry weight ([1]; 4x (320 g ai/ha)): 74.5 % of untreated plots
- Phytotoxicity Index ([1]; 5x (400 g ai/ha)): 0.0
- biomass accumulation (above ground dry weight) ([1]; 5x (400 g ai/ha)): 77.5 % of untreated plots
- plant height ([1]; 5x (400 g ai/ha)): 84.8 % of untreated plots
- root dry weight ([1]; 5x (400 g ai/ha)): 65.0 % of untreated plots
- Phytotoxicity Index ([1]; 6x (480 g ai/ha)): 0.5
- biomass accumulation (above ground dry weight) ([1]; 6x (480 g ai/ha)): 70.7 % of untreated plots
- plant height ([1]; 6x (480 g ai/ha)): 79.8 % of untreated plots
- root dry weight ([1]; 6x (480 g ai/ha)): 57.8 % of untreated plots
- biomass accumulation, Dif with Control ([2]; 0.5x (40 g ai/ha)): 5.5 % of untreated plots
- plant height, Dif with Control ([2]; 0.5x (40 g ai/ha)): 5.6 % of untreated plots
- root dry weight, Dif with Control ([2]; 0.5x (40 g ai/ha)): 12.8 % of untreated plots
- biomass accumulation, Dif with Control ([2]; 1x (80 g ai/ha)): 17.8 % of untreated plots
- plant height, Dif with Control ([2]; 1x (80 g ai/ha)): 10.8 % of untreated plots
- root dry weight, Dif with Control ([2]; 1x (80 g ai/ha)): 29.2 % of untreated plots
- biomass accumulation, Dif with Control ([2]; 2x (160 g ai/ha)): 38.4 % of untreated plots
- plant height, Dif with Control ([2]; 2x (160 g ai/ha)): 30.8 % of untreated plots
- root dry weight, Dif with Control ([2]; 2x (160 g ai/ha)): 49.4 % of untreated plots
- biomass accumulation, Dif with Control ([2]; 3x (240 g ai/ha)): 52.4 % of untreated plots
- plant height, Dif with Control ([2]; 3x (240 g ai/ha)): 49.6 % of untreated plots
- root dry weight, Dif with Control ([2]; 3x (240 g ai/ha)): 60.8 % of untreated plots
- biomass accumulation, Dif with Control ([2]; 4x (320 g ai/ha)): 64.6 % of untreated plots
- plant height, Dif with Control ([2]; 4x (320 g ai/ha)): 66.3 % of untreated plots
- root dry weight, Dif with Control ([2]; 4x (320 g ai/ha)): 68.9 % of untreated plots
- biomass accumulation, Dif with Control ([2]; 5x (400 g ai/ha)): 67.6 % of untreated plots
- plant height, Dif with Control ([2]; 5x (400 g ai/ha)): 68.0 % of untreated plots
- root dry weight, Dif with Control ([2]; 5x (400 g ai/ha)): 69.3 % of untreated plots
- biomass accumulation, Dif with Control ([2]; 6x (480 g ai/ha)): 70.0 % of untreated plots
- root dry weight, Dif with Control ([2]; 6x (480 g ai/ha)): 75.6 % of untreated plots
- plant height, Dif with Control ([2]; 6x (480 g ai/ha), listed as imazapir): 68.9 % of untreated plots and 69.8 % of untreated plots
- biomass accumulation, Mean ([2]; 0.5x (40 g ai/ha)): 94.5 % of untreated plots
- root dry weight, Mean ([2]; 0.5x (40 g ai/ha)): 87.2 % of untreated plots
- biomass accumulation, Mean ([2]; 1x (80 g ai/ha)): 82.2 % of untreated plots
- root dry weight, Mean ([2]; 1x (80 g ai/ha)): 70.8 % of untreated plots
- biomass accumulation, Mean ([2]; 2x (160 g ai/ha)): 61.6 % of untreated plots
- plant height, Mean ([2]; 2x (160 g ai/ha)): 69.2 % of untreated plots
- root dry weight, Mean ([2]; 2x (160 g ai/ha)): 50.6 % of untreated plots
- biomass accumulation, Mean ([2]; 3x (240 g ai/ha)): 47.6 % of untreated plots
- plant height, Mean ([2]; 3x (240 g ai/ha)): 50.4 % of untreated plots
- root dry weight, Mean ([2]; 3x (240 g ai/ha)): 39.2 % of untreated plots
- biomass accumulation, Mean ([2]; 4x (320 g ai/ha)): 35.4 % of untreated plots
- plant height, Mean ([2]; 4x (320 g ai/ha)): 33.7 % of untreated plots
- root dry weight, Mean ([2]; 4x (320 g ai/ha)): 31.1 % of untreated plots
- biomass accumulation, Mean ([2]; 5x (400 g ai/ha)): 32.4 % of untreated plots
- plant height, Mean ([2]; 5x (400 g ai/ha)): 32.0 % of untreated plots
- root dry weight, Mean ([2]; 5x (400 g ai/ha)): 30.7 % of untreated plots
- biomass accumulation, Mean ([2]; 6x (480 g ai/ha)): 30.0 % of untreated plots
- plant height, Mean ([2]; 6x (480 g ai/ha)): 30.2 % of untreated plots
- root dry weight, Mean ([2]; 6x (480 g ai/ha)): 24.4 % of untreated plots
- Phytotoxicity Index, Mean ([2]; 2x (160 g ai/ha)): 2.2
- Phytotoxicity Index, Mean ([2]; 3x (240 g ai/ha)): 5.1
- Phytotoxicity Index, Mean ([2]; 4x (320 g ai/ha)): 7.4
- Phytotoxicity Index, Mean ([2]; 5x (400 g ai/ha)): 8.2
- Phytotoxicity Index, Mean ([2]; 6x (480 g ai/ha)): 8.2
- biomass accumulation (above ground dry weight) ([3]; 0.5x (40 g ai/ha)): 95.0 % of untreated plots
- plant height ([3]; 0.5x (40 g ai/ha)): 99.5 % of untreated plots
- root dry weight ([3]; 0.5x (40 g ai/ha)): 79.4 % of untreated plots
- biomass accumulation (above ground dry weight) ([3]; 1x (80 g ai/ha)): 89.6 % of untreated plots
- plant height ([3]; 1x (80 g ai/ha)): 99.5 % of untreated plots
- root dry weight ([3]; 1x (80 g ai/ha)): 70.7 % of untreated plots
- biomass accumulation (above ground dry weight) ([3]; 2x (160 g ai/ha)): 75.5 % of untreated plots
- plant height ([3]; 2x (160 g ai/ha)): 78.6 % of untreated plots
- root dry weight ([3]; 2x (160 g ai/ha)): 69.6 % of untreated plots
- biomass accumulation (above ground dry weight) ([3]; 3x (240 g ai/ha)): 60.4 % of untreated plots
- plant height ([3]; 3x (240 g ai/ha)): 48.4 % of untreated plots
- root dry weight ([3]; 3x (240 g ai/ha)): 42.3 % of untreated plots
- biomass accumulation (above ground dry weight) ([3]; 4x (320 g ai/ha)): 48.5 % of untreated plots
- plant height ([3]; 4x (320 g ai/ha)): 28.9 % of untreated plots
- root dry weight ([3]; 4x (320 g ai/ha)): 38.6 % of untreated plots
- biomass accumulation (above ground dry weight) ([3]; 5x (400 g ai/ha)): 38.9 % of untreated plots
- plant height ([3]; 5x (400 g ai/ha)): 25.3 % of untreated plots
- root dry weight ([3]; 5x (400 g ai/ha)): 34.7 % of untreated plots
- biomass accumulation (above ground dry weight) ([3]; 6x (480 g ai/ha)): 33.9 % of untreated plots
- plant height ([3]; 6x (480 g ai/ha)): 27.1 % of untreated plots
- root dry weight ([3]; 6x (480 g ai/ha)): 23.1 % of untreated plots
- Phytotoxicity Index ([4]; 0.5x (40 g ai/ha)): 0
- biomass accumulation (above ground dry weight) ([4]; 0.5x (40 g ai/ha)): 99.2 % of untreated plots
- plant height ([4]; 0.5x (40 g ai/ha)): 99.2 % of untreated plots
- root dry weight ([4]; 0.5x (40 g ai/ha)): 90.3 % of untreated plots
- Phytotoxicity Index ([4]; 1x (80 g ai/ha)): 0
- biomass accumulation (above ground dry weight) ([4]; 1x (80 g ai/ha)): 85.0 % of untreated plots
- plant height ([4]; 1x (80 g ai/ha)): 98.1 % of untreated plots
- root dry weight ([4]; 1x (80 g ai/ha)): 69.9 % of untreated plots
- Phytotoxicity Index ([4]; 2x (160 g ai/ha)): 3.1
- biomass accumulation (above ground dry weight) ([4]; 2x (160 g ai/ha)): 58.1 % of untreated plots
- plant height ([4]; 2x (160 g ai/ha)): 63.6 % of untreated plots
- root dry weight ([4]; 2x (160 g ai/ha)): 41.3 % of untreated plots
- Phytotoxicity Index ([4]; 3x (240 g ai/ha)): 3.9
- biomass accumulation (above ground dry weight) ([4]; 3x (240 g ai/ha)): 48.1 % of untreated plots
- plant height ([4]; 3x (240 g ai/ha)): 51.9 % of untreated plots
- root dry weight ([4]; 3x (240 g ai/ha)): 42.8 % of untreated plots
- Phytotoxicity Index ([4]; 4x (320 g ai/ha)): 5.9
- biomass accumulation (above ground dry weight) ([4]; 4x (320 g ai/ha)): 28.8 % of untreated plots
- plant height ([4]; 4x (320 g ai/ha)): 27.5 % of untreated plots
- root dry weight ([4]; 4x (320 g ai/ha)): 22.3 % of untreated plots
- Phytotoxicity Index ([4]; 5x (400 g ai/ha)): 6.9
- biomass accumulation (above ground dry weight) ([4]; 5x (400 g ai/ha)): 27.4 % of untreated plots
- plant height ([4]; 5x (400 g ai/ha)): 26.0 % of untreated plots
- root dry weight ([4]; 5x (400 g ai/ha)): 22.7 % of untreated plots
- Phytotoxicity Index ([4]; 6x (480 g ai/ha)): 6.7
- biomass accumulation (above ground dry weight) ([4]; 6x (480 g ai/ha)): 24.9 % of untreated plots
- plant height ([4]; 6x (480 g ai/ha)): 29.3 % of untreated plots
- root dry weight ([4]; 6x (480 g ai/ha)): 16.4 % of untreated plots
